Reference: BindingDB's records for doi:10.7270/Q2M61NDW (n/a, 1996)

Each compound was assayed against T1, Papain (Carica papaya, UniProt P00784) (assay: Pseudo-first order rate constant for inhibition of thiol-dependent papain enzyme).
T1 sequence (P00784 whole entry): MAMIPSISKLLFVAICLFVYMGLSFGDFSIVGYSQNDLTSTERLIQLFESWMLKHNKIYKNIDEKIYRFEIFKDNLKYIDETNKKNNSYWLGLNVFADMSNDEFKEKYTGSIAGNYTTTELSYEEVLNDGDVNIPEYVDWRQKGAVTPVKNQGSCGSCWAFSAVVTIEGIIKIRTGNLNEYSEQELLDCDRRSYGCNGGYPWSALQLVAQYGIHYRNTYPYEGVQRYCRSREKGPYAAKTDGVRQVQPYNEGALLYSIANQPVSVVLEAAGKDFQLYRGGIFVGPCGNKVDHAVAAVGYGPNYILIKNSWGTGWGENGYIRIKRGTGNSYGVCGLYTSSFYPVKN
`CN(N=O)c1ccccc1O` was tested, and the koff was 0.000183 s⁻¹.
For `CN(N=O)c1cccc(O)c1`, the koff was 0.0006 s⁻¹.
`CN(N=O)c1ccccc1[N+](=O)[O-]` was tested, and the koff was 0.000433 s⁻¹.
For `CN(N=O)c1ccc(Cl)cc1`, the koff was 0.000283 s⁻¹.
For `CN(N=O)c1ccccc1`, the koff was 0.00095 s⁻¹.
